According to patent US12612410B2 (CHILDREN'S HOSPITAL MEDICAL CENTER, priority 2020, dated 2026):

These compounds were tested against T1, FLT3 (Homo sapiens, UniProt P36888) (assay: DiscoverX KINOMEscan competition binding, FLT3).
T1 sequence (P36888 27-993): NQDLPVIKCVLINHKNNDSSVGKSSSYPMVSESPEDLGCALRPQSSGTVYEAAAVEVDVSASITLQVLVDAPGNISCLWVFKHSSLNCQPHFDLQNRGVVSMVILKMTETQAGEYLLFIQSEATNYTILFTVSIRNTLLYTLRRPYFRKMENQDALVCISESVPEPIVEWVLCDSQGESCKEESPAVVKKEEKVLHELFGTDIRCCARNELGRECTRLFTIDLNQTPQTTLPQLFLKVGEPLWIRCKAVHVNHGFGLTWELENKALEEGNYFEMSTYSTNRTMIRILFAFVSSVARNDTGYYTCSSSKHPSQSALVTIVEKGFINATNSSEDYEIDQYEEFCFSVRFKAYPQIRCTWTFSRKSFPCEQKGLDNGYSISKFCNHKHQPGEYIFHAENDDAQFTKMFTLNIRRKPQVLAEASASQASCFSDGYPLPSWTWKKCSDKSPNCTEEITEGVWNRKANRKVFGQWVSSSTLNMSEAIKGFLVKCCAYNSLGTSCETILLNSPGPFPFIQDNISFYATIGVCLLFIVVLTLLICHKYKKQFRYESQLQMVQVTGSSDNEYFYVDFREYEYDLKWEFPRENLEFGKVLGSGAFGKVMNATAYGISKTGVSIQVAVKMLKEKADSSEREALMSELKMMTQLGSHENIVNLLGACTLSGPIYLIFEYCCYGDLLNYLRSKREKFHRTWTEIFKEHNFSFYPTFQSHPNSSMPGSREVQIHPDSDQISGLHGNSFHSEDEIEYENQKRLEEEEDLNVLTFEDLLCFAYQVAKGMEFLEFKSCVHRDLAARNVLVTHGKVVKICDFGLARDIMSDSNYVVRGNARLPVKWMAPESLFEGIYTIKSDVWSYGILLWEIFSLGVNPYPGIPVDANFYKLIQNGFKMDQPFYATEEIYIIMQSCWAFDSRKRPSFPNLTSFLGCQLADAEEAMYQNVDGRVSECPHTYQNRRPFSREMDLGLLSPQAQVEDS
Design: purchased Reaction Biology (RBC), HotSpot kinase assay

| Compound | Kd [nM] |
| --- | --- |
| FC(F)(F)C1(c2cn3c(-c4cccc(N[C@@H]5CCNC5)n4)cnc3cn2)CC1 [Compound 10, (R)-N-(pyrrolidin-3-yl)-6-(6-(1-(trifluoromethyl)cyclopropyl)imidazo[1,2-a]pyrazin-3-yl)pyridin-2-amine] | 0.38 |
| FC(F)c1cn2c(-c3cccc(N[C@H]4CNC[C@@H]4F)n3)cnc2cn1 [Compound 16, 6-(6-(difluoromethyl)imidazo[1,2-a]pyrazin-3-yl)-N-((3S,4S)-4-fluoropyrrolidin-3-yl)pyridin-2-amine] | 0.42 |
| FC(F)c1cn2c(-c3cccc(N[C@H]4CNCC[C@@H]4F)n3)cnc2cn1 [Compound 25, 6-(6-(difluoromethyl)imidazo[1,2-a]pyrazin-3-yl)-N-((3S,4S)-4-fluoropiperidin-3-yl)pyridin-2-amine] | 0.13 |
| CC(C)(O)c1cn2c(-c3cccc(N[C@@H]4CCCNC4)n3)cnc2cn1 [Compound 30, (R)-2-(3-(6-(piperidin-3-ylamino)pyridin-2-yl)imidazo[1,2-a]pyrazin-6-yl)propan-2-ol] | 1.5 |
| CC(C)(O)c1cn2c(-c3cccc(N[C@H]4CNCC[C@@H]4F)n3)cnc2cn1 [Compound 31, 2-(3-(6-(((3S,4S)-4-fluoropiperidin-3-yl)amino)pyridin-2-yl)imidazo[1,2-a]pyrazin-6-yl)propan-2-ol] | 0.55 |
| FC(F)(F)COc1cn2c(-c3cccc(N[C@@H]4CCNC4)n3)cnc2cn1 [Compound 38, (R)-N-(pyrrolidin-3-yl)-6-(6-(2,2,2-trifluoroethoxy)imidazo[1,2-a]pyrazin-3-yl)pyridin-2-amine] | 0.61 |

Now those with a lower Kd, led by results:

| Kd [nM] | Compound |
| --- | --- |
| 0.062 | F[C@H]1CNC[C@@H]1Nc1cccc(-c2cnc3cnc(C4CC4)cn23)n1 [Compound 50, 6-(6-cyclopropylimidazo[1,2-a]pyrazin-3-yl)-N-((3S,4S)-4-fluoropyrrolidin-3-yl)pyridin-2-amine] |
| 0.056 | CC1(c2cn3c(-c4cccc(N[C@@H]5CCNC5)n4)cnc3cn2)CC1 [Compound 3, (R)-6-(6-(1-methylcyclopropyl)imidazo[1,2-a]pyrazin-3-yl)-N-(pyrrolidin-3-yl)pyridin-2-amine] |
| 0.049 | CC1(c2cn3c(-c4cccc(N[C@H]5CNC[C@@H]5F)n4)cnc3cn2)CC1 [Compound 1, N-((3S,4S)-4-fluoropyrrolidin-3-yl)-6-(6-(1-methylcyclopropyl)imidazo[1,2-a]pyrazin-3-yl)pyridin-2-amine] |
| 0.035 | Cn1cc(-c2cn3c(-c4cccc(N[C@H]5CNC[C@@H]5F)n4)cnc3cn2)cn1 [Compound 52, N-((3S,4S)-4-fluoropyrrolidin-3-yl)-6-(6-(1-methyl-1H-pyrazol-4-yl)imidazo[1,2-a]pyrazin-3-yl)pyridin-2-amine] |
| 0.027 | CC1(c2cn3c(-c4cccc(N[C@H]5CNCC56CC6)n4)cnc3cn2)CC1 [Compound 5, (R)-N-(6-(6-(1-methylcyclopropyl)imidazo[1,2-a]pyrazin-3-yl)pyridin-2-yl)-5-azaspiro[2.4]heptan-7-amine] |
